According to patent US9763940B2, “Therapeutic use of P75 receptor antagonists” (Sanofi, priority 2011, dated 2017):
Counter-ions that a name gives are not always drawn.

Legend:
[1] = system: SHR male rats, characterized by overactive bladder (OAB); assay: Cystometry after acute oral treatment in SHR rats with spontaneous overactive bladder; assay type: in vivo, rat; details: % of control period, mean±SEM
Experimental: (§1) Male adult SHR/N Ico rats (250 g; Charles River Italy), were housed 7 days prior to the surgery with free access to standard chow and water. Animals were used in accordance with sanofi international ethical code and the international principles governing the care and treatment of laboratory animals, (E.E.E Council Directive 86/609, DJL358, 1 Cec. 12, 1987) in a fully accredited AAALAC facility.
(§2) A lower midline abdominal incision was performed under general anesthesia with 2-3% isoflurane using aseptic techniques. Their body temperature was maintained at 37° C. using a homeothermic blanket. Polyethylene tubing was inserted into the dome of the bladder and secured in place with a 6-0 nylon purse-string suture. The distal end of the tubing was sealed, tunneled subcutaneously, and externalized at the back of the neck, out of the animal's reach. At the moment of the surgery animals were 16 weeks old.
(§3) After one week from surgery, animals were placed in a Small Animal Cystometry Lab Station (MED Associates, St. Albans, Vt.) for urodynamic measurements. Prior to the start of recording the bladder was emptied and the catheter was connected via a T-tube to a pressure transducer and microinjection pump. Isotonic saline (0.9% NaCl at room temperature) was infused into the bladder at a rate of 10 ml per hour. An analytical balance beneath the wire-bottomed animal cage measured the amount of urine voided during continuous cystometry. A single cystometrogram is defined as the simultaneous recording of intravesical pressure, infused volume and voided volume during a single filling-voiding cycle. At least 4 reproducible micturition cycles are recorded (basal period) after the initial stabilization period of 25 to 30 minutes, using MED-CMG software (Catamount Research &Development Company).
Then, vehicle or compounds were administered orally at 2 ml/kg.
Due to kinetic profile of compounds, urodynamic assessment was performed 1 h after treatment and at least 4 reproducible micturition cycles were recorded.
The cystometrograms are analyzed using a specific software, SOF-552 cystometry data analysis.
The following endpoints have been considered (FIG. 1): • 1. Intercontraction intervals (sec) (ICI)—Time between micturition events (micturition interval) • 2. Threshold pressure (mmHg) (TP)—Bladder pressure immediately prior to micturition • 3. Maximum bladder pressure (mmHg) (Max P)—Highest bladder pressure associated with voiding • 4. Minimum bladder pressure (mmHg) (Min P)—Lowest bladder pressure during bladder filling • 5. Infused volume (μl) (Inf. Vol)—Volume of saline infused during the micturition cycle • 6. Average bladder pressure (mmHg) (Aver P)—Average bladder pressure during bladder filling Exclusion Criteria
In order to limit the impact of inter-group or intra-group variability, all data were expressed as % of control period (100%), as mean±standard error of mean (SEM) and were averaged per group of treatment. A one way analysis of variance (ANOVA), followed by Newman-Keuls' test or Dunnett's test, were used. A probability value of p<0.05 was regarded as significant.
Effects of an Acute Treatment with p75 Antagonists on Urodynamic Parameters in SHR Rats Characterized by Spontaneous Overactive Bladder (OAB)
• Vehicle: 0.5% Polysorbate 80 (PS80) solution in buffered methylcellulose (MC 0.6%) • Compound n°1 at 10 mg/kg: suspension (0.5% PS80 plus MC 0.6%) • Compound n°2 at 3, 10, 30 mg/kg: suspension (0.5% PS80 plus MC 0.6%) • Compound n°3 at 10 mg/kg: suspension (0.5% PS80 plus MC 0.6%) • Compound n°4 at 10 mg/kg: suspension (0.5% PS80 plus MC 0.6%) Experimental Design:
In order to investigate the role of compounds according to the invention in the micturition pathway, 5 groups of 4-12 rats are used: • Group 1, Vehicle per os (po) (n=10) • Group 2, Compound n°1 at 10 mg/kg po (n=12) • Group 3, Compound n°2 at 10 mg/kg po (n=6) • Group 4, Compound n°3 at 10 mg/kg po (n=4) • Group 5, Compound n°4 at 10 mg/kg po (n=5) […]

[2] = system: SHR male rats, characterized by overactive bladder (OAB); assay: Cystometry after one-week chronic treatment in SHR rats with spontaneous overactive bladder; assay type: in vivo, rat; details: 10 mg/kg po for 7 days
Experimental: as §1, §2, §3
The cystometrograms are analyzed using a specific software, SOF-552 cystometry data analysis. […]
In order to limit the impact of inter-group or intra-group variability, all data were expressed as % of control period (100%), as mean±standard error of mean (SEM) and were averaged per group of treatment. […]

[3] = 10 mg/kg po, 1 h after treatment, FIG. 2
[4] = 10 mg/kg po, 1 h after treatment, FIG. 3

`O=C(CN1CC2CCC(C1)N2c1ncc(F)cn1)N1CC=C(c2ccc(Cl)c(C(F)(F)F)c2)CC1` [compound n°1, 1-[4-(4-chloro-3-trifluoromethyl-phenyl)-3,6-dihydro-2H-pyridin-1-yl]-2-[8-(5-fluoro-pyrimidin-2-yl)-3,8-diaza-bicyclo[3.2.1]oct-3-yl]-ethanone] was tested, and the “Intercontraction intervals (ICI)” value [1, 3] was 195.5±15.4% and the “Infused volume (bladder capacity)” value [1, 4] was 194.9±15.3%.
`C[C@@H]1CN(c2ccc(C(=O)O)cn2)C[C@H](C)N1CC(=O)N1CCc2nn(-c3ccccc3)cc2C1` [compound n°2, 6-{(3S,5R)-3,5-Dimethyl-4-[2-oxo-2-(2-phenyl-2,4,6,7-tetrahydropyrazolo[4,3-c]pyridin-5-yl)ethyl]piperazin-1-yl}nicotinic acid hydrochloride] was tested, and the “Effect on micturition pressure parameters” value ([2]; SHR rats) was “no effect”, the “Intercontraction intervals (ICI)” value ([2]; cystometry 24 h after last treatment, % of control values, mean±SEM, FIG. 6) was 173.8±21.1% and the “Infused volume (bladder capacity)” value ([2]; cystometry 24 h after last treatment, % of control values, mean±SEM, FIG. 7) was 173.7±21.1%. For the same compound, the “Intercontraction intervals (ICI)” value [1, 3] was 199.7±28.5%, the “Infused volume (bladder capacity)” value [1, 4] was 198.9±28.3% and the “Intercontraction intervals (ICI)” value ([1]; dose response, 3 mg/kg po, FIG. 4) was 160.9±21.8%. The “Infused volume (bladder capacity)” value ([1]; dose response, 3 mg/kg po, FIG. 5) was 160.8±21.7%, the “Intercontraction intervals (ICI)” value ([1]; dose response, 10 mg/kg po, FIG. 4) was 199.7±28.5% and the “Infused volume (bladder capacity)” value ([1]; dose response, 10 mg/kg po, FIG. 5) was 198.9±28.3%. The “Intercontraction intervals (ICI)” value ([1]; dose response, 30 mg/kg po, FIG. 4) was 210.5±24.7% and the “Infused volume (bladder capacity)” value ([1]; dose response, 30 mg/kg po, FIG. 5) was 209.9±24.5%.
In the case of `C[C@@H]1CN(c2ccc(C(=O)O)cn2)C[C@H](C)N1CC(=O)N1CC=C(c2cccc3ccoc23)CC1` [compound n°3, 6-{(3S,5R)-4-[2-(4-benzofuran-7-yl-3,6-dihydro-2H-pyridin-1-yl)-2-oxoethyl]-3,5-dimethylpiperazin-1-yl}nicotinic acid], the “Intercontraction intervals (ICI)” value [1, 3] is reported as 167.2±20.3% and the “Infused volume (bladder capacity)” value [1, 4] is reported as 167.14±20%.
With `O=C(CN1CC2CCC(C1)N2c1cccnc1)N1CCc2nn(-c3ccccc3)cc2C1` [compound n°4, 1-(2-phenyl-2,4,6,7-tetrahydropyrazolo[4,3-c]pyridin-5-yl)-2-(8-pyridin-3-yl-3,8-diazabicyclo[3.2.1]oct-3-yl)ethanone] the “Intercontraction intervals (ICI)” value [1, 3] was 186.3±26.9% and the “Infused volume (bladder capacity)” value [1, 4] was 186.2±26.9%.
